{"source": "paper PMC11503540", "about": "“Development of a pharmacological evidence‐based anticholinergic burden scale for medications commonly used in older adults” (Geriatrics & Gerontology International, 2023)", "molecular_target": "T1, muscarinic receptor (rat brain)", "T1 construct": "gene Chrm1; native receptors in particulate (40 000 g pellet) preparation of whole brain without cerebellum; subtype mixture not resolved", "experiment": "[3H]NMS displacement, rat brain membranes, filtration", "type": "binding", "conditions": "[3H]NMS 0.3 nM (0.5 nM in data analysis), 30 mM Na+/HEPES pH 7.5, 25 °C, 60 min; competitive", "text": "[3H]NMS displacement, rat brain membranes, filtration on muscarinic receptor (rat brain)", "data": [{"smiles": "CCC(=O)O[C@]1(C(=O)SCF)[C@H](C)C[C@H]2[C@@H]3C[C@H](F)C4=CC(=O)C=C[C@]4(C)[C@@]3(F)[C@@H](O)C[C@@]21C", "note": "[Fluticasone Propionate]", "values": [{"measurement": "IC50", "value": 8, "unit": "µM"}]}, {"smiles": "OC[C@H]1O[C@@H](c2ccc(Cl)c(Cc3ccc(O[C@H]4CCOC4)cc3)c2)[C@H](O)[C@@H](O)[C@@H]1O", "note": "[Empagliflozin]", "values": [{"measurement": "IC50", "value": 22.1, "unit": "µM"}]}, {"smiles": "CN(C)CCCN1c2ccccc2CCc2ccccc21", "note": "[Imipramine]", "values": [{"measurement": "IC50", "value": 0.279, "unit": "µM"}]}, {"smiles": "NC1=NCC2c3ccccc3Cc3ccccc3N12", "note": "(stereo not drawn) [Epinastine]", "values": [{"measurement": "IC50", "value": 26.3, "unit": "µM"}]}, {"smiles": "OC(CCN1CCCCC1)(c1ccccc1)c1ccccc1", "note": "[Pridinol]", "values": [{"measurement": "IC50", "value": 0.0536, "unit": "µM"}]}, {"smiles": "OCc1cc(C(O)CNCCCCCCOCCCCc2ccccc2)ccc1O", "note": "(stereo not drawn) [Salmeterol]", "values": [{"measurement": "IC50", "value": 6.1, "unit": "µM"}]}, {"smiles": "CC(C)C(=O)Oc1ccc(CO)cc1[C@H](CCN(C(C)C)C(C)C)c1ccccc1", "note": "[Fesoterodine]", "values": [{"measurement": "IC50", "value": 0.012, "unit": "µM"}]}, {"smiles": "Cn1c(=O)cc(N2CCC[C@@H](N)C2)n(Cc2ccccc2C#N)c1=O", "note": "[Alogliptin]", "values": [{"measurement": "IC50", "value": 81.5, "unit": "µM"}]}, {"smiles": "C[N+]1(C)CCCC(OC(=O)C(O)(c2ccccc2)c2ccccc2)C1", "note": "(stereo not drawn) [Mepenzolate]", "values": [{"measurement": "IC50", "value": 0.00306, "unit": "µM"}]}, {"smiles": "CNCc1cc(-c2ccccc2F)n(S(=O)(=O)c2cccnc2)c1", "note": "[Vonoprazan]", "values": [{"measurement": "IC50", "value": 1.7, "unit": "µM"}]}, {"smiles": "O=C(O[C@H]1CN2CCC1CC2)N1CCc2ccccc2[C@@H]1c1ccccc1", "note": "[Solifenacin]", "values": [{"measurement": "IC50", "value": 0.00738, "unit": "µM"}]}, {"smiles": "CN(C)CCOC1=Cc2ccccc2Sc2ccc(Cl)cc21", "note": "[Zotepine]", "values": [{"measurement": "IC50", "value": 0.554, "unit": "µM"}]}, {"smiles": "CCc1cc2c(cc1CC)CC(NC[C@H](O)c1ccc(O)c3[nH]c(=O)ccc13)C2", "note": "[Indacaterol]", "values": [{"measurement": "IC50", "value": 39.3, "unit": "µM"}]}, {"smiles": "CC(C)COCC(CN(Cc1ccccc1)c1ccccc1)N1CCCC1", "note": "(stereo not drawn) [Bepridil]", "values": [{"measurement": "IC50", "value": 20.8, "unit": "µM"}]}, {"smiles": "C[N+]1(C)[C@@H]2C[C@@H](OC(=O)C(O)(c3cccs3)c3cccs3)C[C@H]1[C@@H]1O[C@@H]12", "note": "[Tiotropium]", "values": [{"measurement": "IC50", "value": 0.00039, "unit": "µM"}]}, {"smiles": "Nc1nc(CC(=O)Nc2ccc(CCNC[C@H](O)c3ccccc3)cc2)cs1", "note": "[Mirabegron]", "values": [{"measurement": "IC50", "value": 6.62, "unit": "µM"}]}, {"smiles": "C[C@@H]1C[C@H]2[C@@H]3C[C@H](F)C4=CC(=O)C=C[C@]4(C)[C@@]3(F)[C@@H](O)C[C@]2(C)[C@@]1(OC(=O)c1ccco1)C(=O)SCF", "note": "[Fluticasone furoate]", "values": [{"measurement": "IC50", "value": 18.2, "unit": "µM"}]}, {"smiles": "Clc1ccc(C(OCCN2CCCCC2)c2ccccc2)cc1", "note": "(stereo not drawn) [Cloperastine]", "values": [{"measurement": "IC50", "value": 0.0003, "unit": "µM"}]}, {"smiles": "CC(CN(C)C)CN1c2ccccc2CCc2ccccc21", "note": "(stereo not drawn) [Trimipramine]", "values": [{"measurement": "IC50", "value": 0.099, "unit": "µM"}]}, {"smiles": "CC(C)N(CCC(C(N)=O)(c1ccccc1)c1ccccn1)C(C)C", "note": "(stereo not drawn) [Disopyramide]", "values": [{"measurement": "IC50", "value": 5.99, "unit": "µM"}]}, {"smiles": "O=C(Nc1ccc(C[C@@H]2CC[C@H]([C@H](O)c3ccccc3)N2)cc1)[C@@H]1CCc2nccc(=O)n21", "note": "[Vibegron]", "values": [{"measurement": "IC50", "value": 5.32, "unit": "µM"}]}, {"smiles": "CN(C)CCCN1c2ccccc2Sc2ccc(Cl)cc21", "note": "[Chlorpromazine]", "values": [{"measurement": "IC50", "value": 0.376, "unit": "µM"}]}, {"smiles": "COCCCOc1ccnc(C[S+]([O-])c2nc3ccccc3[nH]2)c1C", "note": "(stereo not drawn) [Rabeprazole]", "values": [{"measurement": "IC50", "value": 18.1, "unit": "µM"}]}, {"smiles": "CCC(NC(C)C)C(O)c1ccc(O)c2[nH]c(=O)ccc12", "note": "(stereo not drawn) [Procaterol]", "values": [{"measurement": "IC50", "value": 3.9, "unit": "µM"}]}, {"smiles": "COc1cc(O)c(C(=O)Nc2nc(C(=O)NCCN(C(C)C)C(C)C)cs2)cc1OC", "note": "[Acotiamide]", "values": [{"measurement": "IC50", "value": 44.2, "unit": "µM"}]}, {"smiles": "CCc1ccc(C(=O)C(C)CN2CCCCC2)cc1", "note": "(stereo not drawn) [Eperisone]", "values": [{"measurement": "IC50", "value": 0.902, "unit": "µM"}]}, {"smiles": "Clc1ccccc1CN1CCc2sccc2C1", "note": "[Ticlopidine]", "values": [{"measurement": "IC50", "value": 18, "unit": "µM"}]}, {"smiles": "CC(C)(C)NCC(O)c1ccccc1Cl", "note": "(stereo not drawn) [Tulobuterol]", "values": [{"measurement": "IC50", "value": 71.9, "unit": "µM"}]}, {"smiles": "CNCCC=C1c2ccccc2CCc2ccccc21", "note": "[Nortriptyline]", "values": [{"measurement": "IC50", "value": 0.168, "unit": "µM"}]}, {"smiles": "OC(CCN1CCCCC1)(c1ccccc1)C1CC2C=CC1C2", "note": "(stereo not drawn) [Biperiden]", "values": [{"measurement": "IC50", "value": 0.0105, "unit": "µM"}]}, {"smiles": "CNCC[C@H](Oc1cccc2ccccc12)c1cccs1", "note": "[Duloxetine]", "values": [{"measurement": "IC50", "value": 19.3, "unit": "µM"}]}, {"smiles": "OC(c1ccccc1)(c1ccccc1)C12CC[N+](CCOCc3ccccc3)(CC1)CC2", "note": "[Umeclidinium]", "values": [{"measurement": "IC50", "value": 0.00015, "unit": "µM"}]}, {"smiles": "Cc1c(-c2ccccc2)oc2c(C(=O)OCCN3CCCCC3)cccc2c1=O", "note": "[Flavoxate]", "values": [{"measurement": "IC50", "value": 11.5, "unit": "µM"}]}, {"smiles": "COc1ccc(CC(C)NCC(O)c2ccc(O)c(NC=O)c2)cc1", "note": "(stereo not drawn) [Formoterol]", "values": [{"measurement": "IC50", "value": 14.3, "unit": "µM"}]}, {"smiles": "COc1cc2nc(N3CCN(C(=O)C4COc5ccccc5O4)CC3)nc(N)c2cc1OC", "note": "(stereo not drawn) [Doxazosin]", "values": [{"measurement": "IC50", "value": 13.2, "unit": "µM"}]}, {"smiles": "OC(CCCN1CCCCC1)(c1ccccc1)c1ccccc1", "note": "[Difenidol]", "values": [{"measurement": "IC50", "value": 0.325, "unit": "µM"}]}, {"smiles": "CCCC[C@H](C)C[C@H](O)/C=C/[C@H]1[C@H](O)CC(=O)[C@@H]1CCCC/C=C/C(=O)O", "note": "[Limaprost]", "values": [{"measurement": "IC50", "value": 56.1, "unit": "µM"}]}, {"smiles": "CN(CCCCCCN(C)C(=O)Oc1ccc[n+](C)c1)C(=O)Oc1ccc[n+](C)c1", "note": "[Distigmine]", "values": [{"measurement": "IC50", "value": 1.7, "unit": "µM"}]}, {"smiles": "CN(C)CCC=C1c2ccccc2CCc2ccccc21", "note": "[Amitriptyline]", "values": [{"measurement": "IC50", "value": 0.0293, "unit": "µM"}]}, {"smiles": "Cc1cncc(CN2CCC(=C3c4ccc(Cl)cc4CCc4cccnc43)CC2)c1", "note": "[Rupatadine]", "values": [{"measurement": "IC50", "value": 1.51, "unit": "µM"}]}, {"smiles": "CC#CCn1c(N2CCC[C@@H](N)C2)nc2c1c(=O)n(Cc1nc(C)c3ccccc3n1)c(=O)n2C", "note": "[Linagliptin]", "values": [{"measurement": "IC50", "value": 2.89, "unit": "µM"}]}, {"smiles": "CCCOC(C(=O)OC1CCN(C)CC1)(c1ccccc1)c1ccccc1", "note": "[Propiverine]", "values": [{"measurement": "IC50", "value": 0.35, "unit": "µM"}]}, {"smiles": "CN(C)CCC(c1ccc(Cl)cc1)c1ccccn1", "note": "(stereo not drawn) [Chlorpheniramine]", "values": [{"measurement": "IC50", "value": 5.1, "unit": "µM"}]}, {"smiles": "OCc1cc([C@@H](O)CNCCCCCCOCCOCc2c(Cl)cccc2Cl)ccc1O", "note": "[Vilanterol]", "values": [{"measurement": "IC50", "value": 6.1, "unit": "µM"}]}, {"smiles": "CN1CCC2=C(C1)c1ccccc1Cc1ccccc12", "note": "[Setiptiline]", "values": [{"measurement": "IC50", "value": 1.97, "unit": "µM"}]}]}
